In series [1] the test system is Trypanosoma brucei rhodesiense. Put plainly: Antitrypanosomal activity against bloodstream form of Trypanosoma brucei rhodesiense STIB 900 after 70 hrs by resazurin-based spectrophotometric assay. The format is functional, organism-based. Particulars: STIB 900, 70 h. Background: Alamar Blue is a resazurin reagent that responds to reducing activity.
The subject of the next series is Trypanosoma cruzi. Put plainly: Antitrypanosomal activity against trypomastigote form of Trypanosoma cruzi Tulahuen C2C4 expressing Lac Z infected in rat L6 cells after 96 hrs by spectrophotometry. The format is functional, organism-based. The conditions noted are these: Tulahuen C2C4, L6, 96 h.
The test system of the next series is Leishmania donovani. Put plainly: Antileishmanial activity against Leishmania donovani MHOM-ET-67/L82 after 72 hrs by resazurin-based spectrophotometric assay. The conditions noted are these: MHOM-ET-67/L82, 72 h. It is filed as functional, organism-based.
A further series relates to Giardia intestinalis. Put plainly: Antiprotozoal activity against Giardia intestinalis G1 after 70 hrs by resazurin-based spectrophotometric assay. It is filed as functional, organism-based. The conditions noted are these: Giardia duodenalis, G1, 70 h.
A further series deals with L6. Put plainly: Cytotoxicity against rat L6 cells after 72 hrs by resazurin-based spectrophotometric assay. It is filed as cell-based. The conditions noted are these: L6, 72 h.
The next series has as its system Plasmodium falciparum. Description: Antiplasmodial activity against chloroquine and pyrimethamine-resistant Plasmodium falciparum K1 assessed as inhibition of [3H]hypoxanthine incorporation incubated for 48 hrs prior to [3H] hypoxanthine addition measured after 24 hrs by liquid scintillation counting. It is filed as functional, organism-based.
The subject of another series is Entamoeba histolytica. Description: Antiprotozoal activity against Entamoeba histolytica Hk-9 trophozoites after 70 hrs by resazurin-based spectrophotometric assay. The format is functional, organism-based. The conditions noted are these: Hk-9, 70 h.
A short description of series [2]: Selectivity ratio of IC50 for rat L6 cells to IC50 for Plasmodium falciparum K1. The format is ADME, cell-based. The conditions noted are these: read-out: Ratio IC50.
Series [3] can be described thus: Inhibition of beta-hematin formation in aqueous acetate buffer. The format is functional.
Series [4] in a line: Selectivity ratio of IC50 for rat L6 cells to IC50 for Entamoeba histolytica Hk-9. The format is ADME, cell-based. Particulars: read-out: Ratio IC50.

Active and inactive are the calls of the source. The calls are words filed in the database; no cut-off is given here.

The IC50 is the concentration that gives 50% inhibition.

With `c1cc(OCCCCCCCCCCOc2cccc(-c3nc4ccccc4[nH]3)c2)cc(-c2nc3ccccc3[nH]2)c1`, the concentration for half-maximal inhibition (IC50) in series [1] is 2.08 µM; in the series with Trypanosoma cruzi, 83.2 µM; with Leishmania donovani, 13.3 µM; with Giardia intestinalis, 172 µM; in the series with L6, 72.2 µM; in the series with Plasmodium falciparum, 0.36 µM. In addition, in the series on Entamoeba histolytica, the IC50 is 22.2 µM. Further, in series [2], the selectivity ratio was 202.

Consider `c1cc(OCCCCCCOc2cccc(-c3nc4ccccc4[nH]3)c2)cc(-c2nc3ccccc3[nH]2)c1`, for which the IC50 was 2.37 µM in [1]; 3.88 µM in the series with Trypanosoma cruzi; 2.57 µM in the series on Leishmania donovani; 17.7 µM in the series on Giardia intestinalis; 7.98 µM in the series on L6; 0.28 µM in the series with Plasmodium falciparum. The compound further gave an IC50 in the series on Entamoeba histolytica of 73.7 µM. Further, the selectivity ratio in [2] was determined as 29.

Regarding `c1ccc2[nH]c(-c3ccc(OCc4ccc(COc5ccc(-c6nc7ccccc7[nH]6)cc5)cc4)cc3)nc2c1`, the IC50 in series [1] was determined as 2.12 µM; with Trypanosoma cruzi it was 26.3 µM; in the series with Leishmania donovani it was 0.8 µM; in the series on L6 it was 16 µM; with Plasmodium falciparum, 0.23 µM. In addition, the selectivity ratio in series [2] is 70.

As to `c1cc(OCCCCCCCCOc2cccc(-c3nc4ccccc4[nH]3)c2)cc(-c2nc3ccccc3[nH]2)c1`, the IC50 in series [1] came out at 4.5 µM; in the series with Trypanosoma cruzi, 4.28 µM; with Leishmania donovani, 5.9 µM; in the series with Giardia intestinalis, 52.4 µM; in the series on L6, 13.1 µM; in the series with Plasmodium falciparum, 0.45 µM. This compound also yielded a half-inhibitory concentration (IC50) with Entamoeba histolytica of 23.5 µM. Besides, the selectivity ratio in series [2] amounted to 29.

`c1ccc2[nH]c(-c3ccc(OCCCCCCCCCCOc4ccc(-c5nc6ccccc6[nH]5)cc4)cc3)nc2c1`: the IC50 in series [1] came out at 9.34 µM; in the series with Trypanosoma cruzi it was 88.5 µM; in the series with Leishmania donovani it was 124 µM; with Giardia intestinalis, 22.1 µM; with L6 it was 46 µM; with Plasmodium falciparum it was 0.18 µM. This compound also came in with a half-inhibitory concentration (IC50) with Entamoeba histolytica of 19.3 µM. Besides, the selectivity ratio in series [2] was found to be 257.

`c1cc(OCCCOc2cccc(-c3nc4ccccc4[nH]3)c2)cc(-c2nc3ccccc3[nH]2)c1`: the IC50 is 8.01 µM in series [1]; 8.92 µM in the series with Trypanosoma cruzi; 3.91 µM with Leishmania donovani; 56.1 µM in the series with Giardia intestinalis; 9.82 µM in the series with L6; 2.41 µM with Plasmodium falciparum. In the series with Entamoeba histolytica, this compound showed an IC50 of 78.3 µM. For the same compound, the inhibition entry in series [3] was “Active”. The selectivity ratio in [2] is 4.

In turn, `O=C(Cn1ccnc1[N+](=O)[O-])NCc1ccccc1` [BENZNIDAZOLE] returned an IC50 with Trypanosoma cruzi of 1.13 µM.

With `c1cc(OCOc2cccc(-c3nc4ccccc4[nH]3)c2)cc(-c2nc3ccccc3[nH]2)c1`, the IC50 in series [1] amounted to 14.2 µM; with Trypanosoma cruzi, 11.6 µM; in the series with Leishmania donovani, 6.19 µM; in the series with L6, 18.9 µM; in the series with Plasmodium falciparum, 1.69 µM. For the same compound, the selectivity ratio in series [2] was 11.

For the compound `c1cc(OCCCCCCCOc2cccc(-c3nc4ccccc4[nH]3)c2)cc(-c2nc3ccccc3[nH]2)c1`, the IC50 worked out at 1.37 µM in series [1]; 1.82 µM with Trypanosoma cruzi; 2.69 µM in the series on Leishmania donovani; 25.8 µM in the series with Giardia intestinalis; 118 µM in the series on L6; 0.41 µM with Plasmodium falciparum. In addition, inhibition with Entamoeba histolytica was half-maximal at 56.7 µM (IC50). Moreover, the inhibition entry in series [3] is “Active”. Further, the selectivity ratio in [2] was 291.

On to `c1cc(OCCCCCCCCCOc2cccc(-c3nc4ccccc4[nH]3)c2)cc(-c2nc3ccccc3[nH]2)c1`, for which the IC50 in series [1] came to 2.37 µM; with Trypanosoma cruzi, 4.98 µM; in the series on Leishmania donovani it was 6.59 µM; in the series on Giardia intestinalis, 45.5 µM; in the series with L6 it was 21.9 µM; in the series with Plasmodium falciparum, 0.57 µM. It took 46.2 µM to reach half-maximal inhibition in the series with Entamoeba histolytica (IC50). In addition, the selectivity ratio in series [2] came to 39.

In the case of `c1ccc(COc2ccc(-c3nc4ccccc4[nH]3)cc2)c(COc2ccc(-c3nc4ccccc4[nH]3)cc2)c1`, the IC50 in series [1] is 1.32 µM; with Trypanosoma cruzi it was 6.07 µM; in the series with Leishmania donovani it was 2.33 µM; in the series on L6 it was 5.89 µM; with Plasmodium falciparum, 0.34 µM. In addition, the selectivity ratio in series [2] came out at 17.

For the compound `c1ccc2[nH]c(-c3ccc(OCCCCCCCOc4ccc(-c5nc6ccccc6[nH]5)cc4)cc3)nc2c1`, the IC50 in [1] was found to be 1.08 µM; with Trypanosoma cruzi it was 14.8 µM; with Leishmania donovani, 1.53 µM; with Giardia intestinalis, 1.34 µM; in the series with L6, 48.4 µM; with Plasmodium falciparum, 0.23 µM. Also, the midpoint of inhibition in the series on Entamoeba histolytica, the IC50, lay at 21.7 µM. The inhibition entry in series [3] is “Active”. For the same compound, the selectivity ratio in [2] was 208.

For `c1cc(OCc2ccc(COc3cccc(-c4nc5ccccc5[nH]4)c3)cc2)cc(-c2nc3ccccc3[nH]2)c1`, the IC50 in series [1] stood at 24 µM; in the series on Trypanosoma cruzi, 10.9 µM; in the series on Leishmania donovani it was 8.44 µM; in the series with L6, 10.4 µM; with Plasmodium falciparum, 0.19 µM. In addition, the selectivity ratio in series [2] came out at 54.

Regarding `c1ccc2[nH]c(-c3ccc(OCCCCCCOc4ccc(-c5nc6ccccc6[nH]5)cc4)cc3)nc2c1`, the IC50 was 7.22 µM in series [1]; 6.05 µM in the series with Trypanosoma cruzi; 6.59 µM in the series with Leishmania donovani; 3.58 µM in the series with Giardia intestinalis; 9.61 µM with L6; 0.24 µM in the series on Plasmodium falciparum. Moreover, the IC50 with Entamoeba histolytica is > 199 µM. Besides, the inhibition result in series [3] is “Active”. The selectivity ratio in series [2] was found to be 40.

With `Cc1ncc([N+](=O)[O-])n1CCO` [METRONIDAZOLE], the IC50 in the series with Giardia intestinalis was found to be 1.56 µM; with Entamoeba histolytica, 5.82 µM.

Regarding `c1ccc2[nH]c(-c3ccc(OCCCOc4ccc(-c5nc6ccccc6[nH]5)cc4)cc3)nc2c1`, the IC50 in series [1] came out at 1.5 µM; with Trypanosoma cruzi, 3.91 µM; with Leishmania donovani, 2.67 µM; in the series with Giardia intestinalis it was 0.74 µM; in the series on L6, 3.56 µM; in the series with Plasmodium falciparum it was 0.28 µM. In addition, in the series on Entamoeba histolytica, the IC50 is 3.37 µM. In addition, the inhibition result in series [3] is “Active”. Further, the results for the selectivity ratio in series [2] and in series [4] were 13 and 1, respectively.

In the case of `c1cc(COc2cccc(-c3nc4ccccc4[nH]3)c2)cc(COc2cccc(-c3nc4ccccc4[nH]3)c2)c1`, the IC50 in [1] is 3.6 µM; in the series on Trypanosoma cruzi it was 5.99 µM; in the series with Leishmania donovani, 4.63 µM; with L6, 79.6 µM; in the series with Plasmodium falciparum, 0.4 µM. Further, the selectivity ratio in [2] stood at 198.

As for `c1cc(OCCCCCOc2cccc(-c3nc4ccccc4[nH]3)c2)cc(-c2nc3ccccc3[nH]2)c1`, the IC50 worked out at 1.33 µM in series [1]; 1.7 µM in the series on Trypanosoma cruzi; 1.19 µM with Leishmania donovani; 18.5 µM in the series with Giardia intestinalis; 3.56 µM in the series with L6; 0.34 µM in the series on Plasmodium falciparum. This compound also yielded an IC50 in the series on Entamoeba histolytica of 27.8 µM. In addition, the selectivity ratio in [2] was determined as 10.

In the case of `c1cc(OCc2ccccc2COc2cccc(-c3nc4ccccc4[nH]3)c2)cc(-c2nc3ccccc3[nH]2)c1`, the IC50 in [1] was 2.66 µM; in the series on Trypanosoma cruzi it was 2.53 µM; in the series on Leishmania donovani, 3 µM; in the series on L6, 7.02 µM; with Plasmodium falciparum, 0.34 µM. In addition, the selectivity ratio in [2] was determined as 20.

On to `c1ccc2[nH]c(-c3ccc(OCOc4ccc(-c5nc6ccccc6[nH]5)cc4)cc3)nc2c1`, for which the IC50 in series [1] is 2.13 µM; in the series on Trypanosoma cruzi, 11.3 µM; in the series on Leishmania donovani it was 16.5 µM; in the series on L6 it was 14.4 µM; in the series with Plasmodium falciparum it was 0.69 µM. Also, in series [2], the selectivity ratio is 21.

Consider `c1cc(OCCOc2cccc(-c3nc4ccccc4[nH]3)c2)cc(-c2nc3ccccc3[nH]2)c1`, for which the half-inhibitory concentration (IC50) came out at 16.6 µM in series [1]; 4.68 µM with Trypanosoma cruzi; 24.1 µM with Leishmania donovani; 11.7 µM with Giardia intestinalis; 5.04 µM with L6; 2.58 µM in the series on Plasmodium falciparum. For the same compound, in the series with Entamoeba histolytica, half-maximal inhibition (IC50) required 84 µM. In addition, in series [3], the inhibition entry is “Active”. The selectivity ratio in series [2] came out at 2.

In the case of `c1ccc2[nH]c(-c3ccc(OCCCCCOc4ccc(-c5nc6ccccc6[nH]5)cc4)cc3)nc2c1`, the IC50 in series [1] came out at 1.02 µM; with Trypanosoma cruzi, 2.42 µM; in the series on Leishmania donovani, 0.8 µM; in the series on Giardia intestinalis it was 0.82 µM; in the series with L6, 6.82 µM; with Plasmodium falciparum it was 0.27 µM. The same compound gave an IC50 in the series with Entamoeba histolytica of 22.7 µM. Further, the inhibition entry in [3] is “Active”. The selectivity ratio in series [2] turned out to be 26.

Turning to `c1cc(OCCCCOc2cccc(-c3nc4ccccc4[nH]3)c2)cc(-c2nc3ccccc3[nH]2)c1`, the IC50 worked out at 18.5 µM in [1]; 23.9 µM in the series with Trypanosoma cruzi; 9.99 µM with Leishmania donovani; 36 µM with Giardia intestinalis; 21.2 µM in the series with L6; 0.23 µM in the series with Plasmodium falciparum. The compound also registered an IC50 with Entamoeba histolytica of 211 µM. The inhibition entry in series [3] is “Active”. Besides, in series [2], the selectivity ratio is 92.

As to `c1ccc2[nH]c(-c3ccc(OCCOc4ccc(-c5nc6ccccc6[nH]5)cc4)cc3)nc2c1`, the IC50 in [1] is 154 µM; with Trypanosoma cruzi, 133 µM; in the series with Leishmania donovani, > 202 µM; in the series with Giardia intestinalis, 124 µM; with L6, 25.4 µM; in the series with Plasmodium falciparum, 2.01 µM. Further, in the series with Entamoeba histolytica, the IC50 amounted to 191 µM. In series [2], the selectivity ratio is 13.

The values are drawn from ChEMBL document CHEMBL1926599, “Bis(oxyphenylene)benzimidazoles: a novel class of anti-Plasmodium falciparum agents” (Bioorg Med Chem, 2011).
